The record followed here is US20120009280A1, “METHOD OF REDUCING THE RATE OF DEGRADATION OF A BIOLOGICAL MATERIAL” (Bio-Energy Ingredients Limited, priority 2009, published 2012).

What all share (type): cell-based
Experiment [1] has as its system Escherichia coli NCIMB 8545. Put plainly: Antimicrobial efficacy test of saturated aqueous solutions. The note with it: for Corrected count cfu/mL: saturated aqueous solution, inoculum (t = 0) 6.95 × 10^8, replicates A, B; for colonies on plates: saturated solution. The method, then:
Escherichia coli NCIMB 8545 was subcultured onto TSA and the plates incubated at 30-35° C. for approximately 24 hours. After this time, surface growth was harvested and directly suspended into sterile distilled water and standardised to give 30-45% light transmission at 520 nm on a Jenway 6105 Spectrophotometer—an approximate yield of 2 (10^8) cfu/ml. A 0.1 ml aliquot of this suspension was inoculated into 9.9 ml of CaOH solution. This was performed in duplicate. At the same time, 1 ml of bacterial suspension was removed from the original stock suspension and placed into 9 ml PBS to perform the initial (Time 0) count. The inoculated calcium hydroxide suspensions were then shaken for one hour at room temperature. After this time 1 ml samples of the bacterial suspension were removed from the test containers and placed into 9 ml PBS. For each diluted sample, further serial ten-fold dilutions in PBS down to 10^−5 were made and then used to prepare duplicate 1 ml pour plate counts in TSA. Pour plates were also prepared from the neat (undiluted) sample. The plates were incubated at 30-35° C. for approximately 24 hours. Following incubation, the plates were counted. Optimally, plates with counts of 30-300 colonies were used to calculate the counts at each sampling time.
Escherichia coli NCIMB 8545 was subcultured onto TSA and the plates incubated at 30-35° C. for approximately 24 hours. After this time, surface growth was harvested and directly suspended into sterile distilled water and standardised to give 30-45% light transmission at 520 nm on a Jenway 6105 Spectrophotometer—an approximate yield of 2×10^8 cfu/ml. […] […]. At the same time, 1 ml of bacterial suspension was removed from the original stock suspension and placed into 9 ml PBS to perform the initial (Time 0) count. The inoculated suspensions were then shaken for one hour at room temperature. After both 10 minutes and one hour, 1 ml samples of the bacterial suspension were removed from the test containers and placed into 9 ml PBS. For each diluted sample, further serial ten-fold dilutions in PBS down to 10^−6 were made and then used to prepare duplicate 1 ml pour plate counts in TSA. Pour plates were also prepared from the neat (undiluted) sample. The plates were incubated at 30-35° C. for approximately 24 hours.
(§1) Following incubation, the plates were counted. Optimally, plates with counts of 30-300 colonies were used to calculate the counts at each sampling time.
(§2) Escherichia coli NCIMB 8545 and Salmonella abony NCTC 6017 were subcultured onto Tryptone Soya Agar (TSA) and the plates incubated at 30-35° C. for approximately 24 hours. Clostridium difficile ATCC 43255 was subcultured onto Fastidious Anaerobe Agar (FAA)+5% defibrinated horse blood and the plates incubated at 30-35° C. for approximately 48 hours. After this time, surface growth was harvested and directly suspended into sterile distilled water and standardised to give 30-45% light transmission at 520 nm on a Jenway 6105 Spectrophotometer—an approximate yield of 2×10^8 cfu/ml. […] […]. At the same time, 1 ml of bacterial suspension was removed from the original stock suspensions and placed into 9 ml PBS to perform the initial (Time 0) count. The inoculated suspensions were then shaken for ten minutes at room temperature. After 1 and 10 minutes, 1 ml samples of the bacterial suspensions were removed from the test containers and placed into 9 ml PBS. For each diluted sample, further serial ten-fold dilutions in PBS down to 10^−5 were made and then used to prepare duplicate 1 ml pour plate counts in TSA. Pour plates were also prepared from the neat (undiluted) sample. For Clostridium difficile, 0.1 ml spread plates were prepared on FAA instead of 1 ml pour plates due to the presence of blood in the agar. The plates were incubated at 30-35° C. for approximately 24 hours (48 hours for Clostridium difficile).

The test system of experiment [2] is Clostridium difficile ATCC 43255. Described as above. The note with it: for Corrected count cfu/mL: saturated aqueous solution, inoculum (t = 0) 8.20 × 10^7, replicates A, B; for reduction: saturated solution 8.35 g/L (0.037 M). On the procedure: as §2, §1
Another experiment deals with Escherichia coli. Put plainly: Spiking test of agar plates with Escherichia coli (kill versus inhibition). The note with it: for Individual count / Mean count: spiking test. On the procedure:
(§3) When performing total viable counts (TVCs), the agar plates (when they were molten and containing 1 ml of the test sample dilution) were spiked with bacterial organisms (E. Coli and P. aeruginosa) of a known concentration. If the organisms grew, this would indicate that the conditions in the agar plate had not inhibited them. A control with no sample was run at the same time. […]
(§4) The plates were incubated at 30-35° C. for approximately 24 hours after which time the bacterial colonies were counted.
. […] This was performed in duplicate.

Experiment [3] deals with Salmonella abony NCTC 6017. Put plainly: Antimicrobial efficacy test of saturated aqueous solutions. On the procedure: At the same time, 1 ml of bacterial suspension was removed from the original stock suspensions and placed into 9 ml PBS to perform the initial (Time 0) count. The inoculated suspensions were then shaken for ten minutes at room temperature. After 1 and 10 minutes, 1 ml samples of the bacterial suspensions were removed from the test containers and placed into 9 ml PBS. For each diluted sample, further serial ten-fold dilutions in PBS down to 10^−5 were made and then used to prepare duplicate 1 ml pour plate counts in TSA. Pour plates were also prepared from the neat (undiluted) sample. For Clostridium difficile, 0.1 ml spread plates were prepared on FAA instead of 1 ml pour plates due to the presence of blood in the agar. The plates were incubated at 30-35° C. for approximately 24 hours (48 hours for Clostridium difficile).
as §1

A further experiment relates to total micro-organism. Put plainly: Total microbial (plate) count of spent brewer's / wet distiller's grains stored at ambient temperature. The note with it: dose 10% w/w; distiller's grains not de-watered, Examples 16-18.
Another experiment concerns Pseudomonas aeruginosa. Put plainly: Spiking test of agar plates with Pseudomonas aeruginosa (kill versus inhibition). As to conditions: treated sample with 5% (w/w) calcium oxide, Day 9, all sample dilutions. The method, then: as §3, §4
Setting [4] is: 10 minutes incubation, Example 13.
[5] abbreviates: 10 minutes incubation, time 0 count 4.00×10^6 cfu/ml, Example 12.
[6] abbreviates: one hour incubation, time 0 count 4.00×10^6 cfu/ml, Example 12.
Where [7] appears, read: E. coli NCIMB 8545, dilution −1 in PBS.
[8] abbreviates: E. coli NCIMB 8545, dilution −2 in PBS.
Where [9] appears, read: E. coli NCIMB 8545, dilution −3 in PBS.
The mark [10] stands for this setting: E. coli NCIMB 8545, dilution −4 in PBS.
The mark [11] stands for this setting: E. coli NCIMB 8545, dilution −5 in PBS.
Where [12] appears, read: E. coli NCIMB 8545, saturated solution Neat (control mean 215).

“And” between values parts separate entries of the source, which are not always exact repeats. Identical values can stand only once. A value given as a limit tells only on which side of the number the result lay.

Take `[Ca+2].[O-]CC(O)CO.[O-]CC(O)CO` [calcium diglyceroxide]: the “Corrected count cfu/mL” value in experiment [1] (one minute treatment) was 0 cfu/mL and 1 cfu/mL; in experiment [2] (one minute treatment) it was 1.30 × 10^3 cfu/mL and 7.00 × 10^2 cfu/mL; in experiment [2] (ten minute treatment), 85 cfu/mL and 50 cfu/mL. Further, the reduction is on record as at least 4 log10 in experiment [1] (saturated solution 8.35 g/L (0.037 M), one minute treatment); at least 4 log10 in experiment [2] (one minute treatment); 6 log10 in experiment [2] (ten minute treatment). The colonies on plates entry in experiment [1] (setting [4]), in experiment [1] (setting [5]) and in experiment [1] (setting [6]) was “No colonies” in each case.
Take `[Ca+2].[OH-].[OH-]` [calcium hydroxide]: the Individual count was 197 and 209 in the experiment on Escherichia coli (setting [7]); 194 and 203 with Escherichia coli (setting [8]); 192 and 240 in the experiment with Escherichia coli (setting [9]); 194 and 196 in the experiment with Escherichia coli (setting [10]); 235 and 194 in the experiment on Escherichia coli (setting [11]); 216 and 191 in the experiment on Escherichia coli (setting [12]). For the same molecule, the Mean count in the experiment with Escherichia coli (setting [7]) worked out at 203; in the experiment on Escherichia coli (setting [8]), 199; with Escherichia coli (setting [9]) it was 216; with Escherichia coli (setting [10]), 195; in the experiment on Escherichia coli (setting [11]) it was 215; in the experiment on Escherichia coli (setting [12]), 205. Also, the “Corrected count cfu/mL” value in experiment [3] (saturated aqueous solution, one minute treatment, inoculum (t = 0) 7.00 × 10^8, replicates A, B) is 59 cfu/mL and 11 cfu/mL; in experiment [1] (one minute treatment), 1.35 × 10^6 cfu/mL and 1.23 × 10^5 cfu/mL; in experiment [2] (one minute treatment) it was 8.50 × 10^2 cfu/mL and 9.50 × 10^2 cfu/mL; in experiment [2] (ten minute treatment), 1.10 × 10^2 cfu/mL and 1.20 × 10^2 cfu/mL. The colonies on plates entry in experiment [3] (saturated solution, 10 minutes incubation) is recorded as “No colonies”; in experiment [1] (setting [4]), “No colonies”; in experiment [1] (setting [5]), “No colonies”; in experiment [1] (setting [6]), “No colonies”.
Take `[O]=[Ca]` [calcium oxide]: the “inhibitory effect on test organism in spiking test” value with Escherichia coli (treated sample with 5% (w/w) calcium oxide, Day 9, all sample dilutions) was “did not demonstrate an inhibitory effect”; with Pseudomonas aeruginosa, “did not demonstrate an inhibitory effect”. Further, the “preservation time with total microbial counts <100 cfu/g” value in the experiment on total micro-organism is given as “≧9 weeks”. Also, in the experiment with total micro-organism, the “preservation time with total microbial counts <1000 cfu/g” value is listed as “≧9 weeks”.
